# Columns and labels:
# [1] = system: human lung cancer strain NCI-H441; assay: NCI-H441 cell proliferation inhibitory activity (CellTiter-Glo, 4 days); assay type: cell-based; details: NCI-H441 cells, 4 days, read-out: NCl-H441 IC50
# How it was run: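 Signal came from […] measured per well once the reagent was added. Beforehand, cells were cultured at 37°C and 5% carbon dioxide on a compound series serially diluted in dimethyl sulfoxide.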
# [2] = target: GDP-bound NRAS wild-type protein (Homo sapiens, UniProt P01111); assay: Binding to NRAS by surface plasmon resonance (SPR), KD and KD ratio to KRAS; details: ratio of KD for GDP-bound NRAS wild-type protein to KD for KRAS
# How it was run: (§1)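 Recombinant RAS proteins bearing a biotinylated Avi tag and loaded with GDP served as the captured ligand, recaptured fresh every cycle. Binding responses were referenced to an uncoated surface and a buffer-only blank cycle. Dissociation constants were obtained by 1:1 model fitting at 30°C.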
# HRAS wild-type protein = HRAS wild-type protein (Homo sapiens, UniProt P01112); assay: Binding to HRAS by surface plasmon resonance (SPR), KD and KD ratio to KRAS; details: ratio of KD for HRAS wild-type protein to KD for KRAS
# How it was run: as §1
# [3] = target: GDP-bound KRAS wild-type protein (Homo sapiens, UniProt P01116); assay: Binding to KRAS by surface plasmon resonance (SPR), dissociation constant KD; details: Single Cycle Kinetics
# How it was run: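 Running buffer contained 10 µM GDP and 10 mM MgCl2 to keep RAS in the GDP state, with 4% DMSO at pH 7.4. Compounds were flowed at 100 µL/min in 75 s steps of rising concentration over captured biotin-Avi RAS at 30°C. Sensorgrams were fitted 1:1 for KD.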
# Sequence of GDP-bound NRAS wild-type protein (P01111 whole entry): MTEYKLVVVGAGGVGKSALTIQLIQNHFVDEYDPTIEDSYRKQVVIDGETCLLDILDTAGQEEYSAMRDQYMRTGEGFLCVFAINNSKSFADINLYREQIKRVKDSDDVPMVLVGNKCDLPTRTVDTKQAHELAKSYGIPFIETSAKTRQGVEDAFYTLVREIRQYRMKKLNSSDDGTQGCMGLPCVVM
# Sequence of GDP-bound KRAS wild-type protein (P01116 1-188 isoform P01116-2): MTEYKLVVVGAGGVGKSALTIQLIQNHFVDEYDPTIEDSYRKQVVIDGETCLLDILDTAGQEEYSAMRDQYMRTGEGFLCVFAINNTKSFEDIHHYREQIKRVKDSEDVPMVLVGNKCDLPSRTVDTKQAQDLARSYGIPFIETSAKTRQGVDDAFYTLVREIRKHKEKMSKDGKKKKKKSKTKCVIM
# Sequence of HRAS wild-type protein (P01112 whole entry): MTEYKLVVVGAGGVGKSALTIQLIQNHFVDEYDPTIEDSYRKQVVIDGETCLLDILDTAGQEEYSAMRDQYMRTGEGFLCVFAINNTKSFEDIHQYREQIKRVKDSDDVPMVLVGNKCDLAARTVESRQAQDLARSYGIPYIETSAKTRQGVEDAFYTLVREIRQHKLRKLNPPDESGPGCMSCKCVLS
SMILES,IC50 [1] [nM],NRAS /KRAS [2],HRAS /KRAS (HRAS wild-type protein),Kd [3] [nM]
CCO[C@@H]1C[C@H]2C(=O)NC3(CCCC3)C(=O)N(C)[C@@H](C3CCCC3)C(=O)N(C)[C@H](C(=O)N(C)C)CC(=O)N(C)[C@@H]([C@@H](C)OC)C(=O)N[C@@H]([C@@H](C)CC)C(=O)N(C3CC3)CC(=O)N(C)[C@H]3C/C=C\CCN(C3=O)[C@@H](Cc3ccc(C)cc3)C(=O)N(C)CC(=O)N[C@@H](CCc3cc(F)c(C(F)(F)F)c(F)c3)C(=O)N2C1 [PP3482],38.6,A (a compound having 10 or more and less than 20 is denoted as A),A (a compound having 10 or more and less than 20 is denoted as A),0.6
CCO[C@@H]1C[C@H]2C(=O)NC3(CCCC3)C(=O)N(C)[C@@H](C3CCCC3)C(=O)N(C)[C@H](C(=O)N(C)C)CC(=O)N(C)[C@@H]([C@@H](C)OC)C(=O)N[C@@H]([C@@H](C)CC)C(=O)N3CCC[C@H]3C(=O)N(C)[C@H]3C/C=C\CCN(C3=O)[C@@H](Cc3ccc(C)cc3)C(=O)N(C)CC(=O)N[C@@H](CCc3cc(F)c(C(F)(F)F)c(F)c3)C(=O)N2C1 [PP3483],55.8,A (a compound having 10 or more and less than 20 is denoted as A),A (a compound having 10 or more and less than 20 is denoted as A),0.88
C#CCN1CC(=O)N(C)[C@H]2C/C=C\CCN(C2=O)[C@@H](Cc2ccc(C(F)F)cc2)C(=O)N(C)CC(=O)N[C@@H](CCc2cc(F)c(C(F)(F)F)c(F)c2)C(=O)N2C[C@H](OC(C)C)C[C@H]2C(=O)N(C)C2(CCC2)C(=O)N(C)[C@@H](C(CC)CC)C(=O)N(C)[C@H](C(=O)N(C)C)CC(=O)N(C)[C@@H](COCCC)C(=O)N[C@@H]([C@@H](C)OC)C1=O [PP3485],12,A (a compound having 10 or more and less than 20 is denoted as A),A (a compound having 10 or more and less than 20 is denoted as A),0.75
C=CCN1CC(=O)N(C)[C@H]2C/C=C\CCN(C2=O)[C@@H](Cc2ccc(C(F)F)cc2)C(=O)N(C)CC(=O)N[C@@H](CCc2cc(F)c(C(F)(F)F)c(F)c2)C(=O)N2C[C@H](OC(C)C)C[C@H]2C(=O)N(C)C2(CCC2)C(=O)N(C)[C@@H](C(CC)CC)C(=O)N(C)[C@H](C(=O)N(C)C)CC(=O)N(C)[C@@H](COCCC)C(=O)N[C@@H]([C@@H](C)OCCC)C1=O [PP3486],12.6,A (a compound having 10 or more and less than 20 is denoted as A),A (a compound having 10 or more and less than 20 is denoted as A),0.61
CCCOC[C@H]1C(=O)N[C@@H](C2CCCC2)C(=O)N(CCC)CC(=O)N(C)[C@H]2C/C=C\CCN(C2=O)[C@@H](Cc2ccc(C(F)F)cc2)C(=O)N(C)CC(=O)N[C@@H](CCc2cc(F)c(C(F)(F)F)c(F)c2)C(=O)N2C[C@H](OC(C)C)C[C@H]2C(=O)N(C)C2(CCC2)C(=O)N(C)[C@@H](C(CC)CC)C(=O)N(C)[C@H](C(=O)N(C)C)CC(=O)N1C [PP3487],39.8,A (a compound having 10 or more and less than 20 is denoted as A),A (a compound having 10 or more and less than 20 is denoted as A),0.96
CCCOC[C@H]1C(=O)N[C@@H]([C@@H](C)OCCC)C(=O)N(CCC)CC(=O)N(C)[C@H]2C/C=C\CCN(C2=O)[C@@H](Cc2ccc(C(F)F)cc2)C(=O)N(C)CC(=O)N[C@@H](CCc2cc(F)c(C(F)(F)F)c(F)c2)C(=O)N2C[C@H](OC(C)C)C[C@H]2C(=O)N(C)C2(CCC2)C(=O)N(C)[C@@H](C(CC)CC)C(=O)N(C)[C@H](C(=O)N(C)C)CC(=O)N1C [PP3488],30.7,A (a compound having 10 or more and less than 20 is denoted as A),A (a compound having 10 or more and less than 20 is denoted as A),0.71
CCCOC[C@H]1C(=O)N[C@@H](C2CCCC2)C(=O)N(CCC)CC(=O)N(C)[C@H]2C/C=C\CCN(C2=O)[C@@H](Cc2ccc(C(F)F)cc2)C(=O)N(C)CC(=O)N[C@@H](CCc2ccc(C(F)(F)F)c(Cl)c2)C(=O)N2C[C@H](OC(C)C)C[C@H]2C(=O)N(C)C2(CCC2)C(=O)N(C)[C@@H](C(CC)CC)C(=O)N(C)[C@H](C(=O)N(C)C)CC(=O)N1C [PP3489],45,AA (a compound having 20 or more is denoted as AA),A (a compound having 10 or more and less than 20 is denoted as A),1.3
C#CCN1CC(=O)N(C)[C@H]2C/C=C\CCN(C2=O)[C@@H](Cc2ccc(C(F)F)cc2)C(=O)N(C)CC(=O)N[C@@H](CCc2cc(F)c(C(F)(F)F)c(F)c2)C(=O)N2C[C@H](OC(C)C)C[C@H]2C(=O)N(C)C2(CCC2)C(=O)N(C)[C@@H](C(CC)CC)C(=O)N(C)[C@H](C(=O)N(C)C)CC(=O)N(C)[C@@H](COCCC)C(=O)N[C@@H]([C@@H](C)CC)C1=O [PP3490],23.7,A (a compound having 10 or more and less than 20 is denoted as A),A (a compound having 10 or more and less than 20 is denoted as A),0.3
CCCOC[C@H]1C(=O)N[C@@H]([C@H](C)CC)C(=O)N(CCC)CC(=O)N(C)[C@H]2C/C=C\CCN(C2=O)[C@@H](Cc2ccc(C(F)F)cc2)C(=O)N(C)CC(=O)N[C@@H](CCc2cc(F)c(C(F)(F)F)c(F)c2)C(=O)N2C[C@H](OC(C)C)C[C@H]2C(=O)N(C)C2(CCC2)C(=O)N(C)[C@@H](C(CC)CC)C(=O)N(C)[C@H](C(=O)N(C)C)CC(=O)N1C [PP3492],89.4,A (a compound having 10 or more and less than 20 is denoted as A),A (a compound having 10 or more and less than 20 is denoted as A),4.2
C=CCN1CC(=O)N(C)[C@H]2C/C=C\CCN(C2=O)[C@@H](Cc2ccc(C(F)F)cc2)C(=O)N(C)CC(=O)N[C@@H](CCc2ccc(C(F)(F)F)cc2Cl)C(=O)N2C[C@H](OC(C)C)C[C@H]2C(=O)N(C)C2(CCC2)C(=O)N(C)[C@@H](C(CC)CC)C(=O)N(C)[C@H](C(=O)N(C)C)CC(=O)N(C)[C@@H](CC2CC2)C(=O)N[C@@H]([C@@H](C)OCCC)C1=O [PP3493],32.1,AA (a compound having 20 or more is denoted as AA),A (a compound having 10 or more and less than 20 is denoted as A),1
C#CCN1CC(=O)N(C)[C@H]2C/C=C\CCN(C2=O)[C@@H](Cc2ccc(C(F)F)cc2)C(=O)N(C)CC(=O)N[C@@H](CCc2ccc(C(F)(F)F)cc2Cl)C(=O)N2C[C@H](OC(C)C)C[C@H]2C(=O)N(C)C2(CCC2)C(=O)N(C)[C@@H](C(CC)CC)C(=O)N(C)[C@H](C(=O)N(C)C)CC(=O)N(C)[C@@H](CC(C)C)C(=O)N[C@@H]([C@@H](C)CC)C1=O [PP3495],37.9,AA (a compound having 20 or more is denoted as AA),A (a compound having 10 or more and less than 20 is denoted as A),0.72
C#CCN1CC(=O)N(C)[C@H]2C/C=C\CCN(C2=O)[C@@H](Cc2ccc(C(F)F)cc2)C(=O)N(C)CC(=O)N[C@@H](CCc2cc(F)c(C(F)(F)F)c(F)c2)C(=O)N2C[C@H](OC(C)C)C[C@H]2C(=O)N(C)C2(CCC2)C(=O)N(C)[C@@H](C(CC)CC)C(=O)N(C)[C@H](C(=O)N(C)C)CC(=O)N(C)[C@@H](CC(F)(F)F)C(=O)N[C@@H](C(C)C)C1=O [PP3496],11.6,A (a compound having 10 or more and less than 20 is denoted as A),A (a compound having 10 or more and less than 20 is denoted as A),0.43
CCCN1CC(=O)N(C)[C@H]2C/C=C\CCN(C2=O)[C@@H](Cc2ccc(C(F)F)cc2)C(=O)N(C)CC(=O)N[C@@H](CCc2cc(F)c(C(F)(F)F)c(F)c2)C(=O)N2C[C@H](OC(C)C)C[C@H]2C(=O)N(C)C2(CCC2)C(=O)N(C)[C@@H](C(CC)CC)C(=O)N(C)[C@H](C(=O)N(C)C)CC(=O)N(C)[C@@H](CC(F)F)C(=O)N[C@@H](C2CCCC2)C1=O [PP3497],21.2,A (a compound having 10 or more and less than 20 is denoted as A),A (a compound having 10 or more and less than 20 is denoted as A),0.74
CCCN1CC(=O)N(C)[C@H]2C/C=C\CCN(C2=O)[C@@H](Cc2ccc(C(F)F)cc2)C(=O)N(C)CC(=O)N[C@@H](CCc2cc(F)c(C(F)(F)F)c(F)c2)C(=O)N2C[C@H](OC(C)C)C[C@H]2C(=O)N(C)C2(CCC2)C(=O)N(C)[C@@H](C(CC)CC)C(=O)N(C)[C@H](C(=O)N(C)C)CC(=O)N(C)[C@@H](COCC)C(=O)N[C@@H](C2CCCC2)C1=O [PP3498],24.7,A (a compound having 10 or more and less than 20 is denoted as A),A (a compound having 10 or more and less than 20 is denoted as A),0.94

# Source: patent EP4603105A1, “PHARMACEUTICAL COMPOSITION CONTAINING CYCLIC COMPOUND HAVING SELECTIVE KRAS INHIBITORY EFFECT AGAINST HRAS AND NRAS” (CHUGAI SEIYAKU KABUSHIKI KAISHA, priority 2022, dated 2024)
